Numbers after ± are expanded uncertainties.
Settings: Liquid, Ebulliometric method (Recirculating still)

SMILES: O=C1C=CCCC1 [2-cyclohexen-1-one]
- vapor or sublimation pressure (444.48 K): 99 ± 1 kPa
- vapor or sublimation pressure (444.51 K): 99 ± 1 kPa

SMILES: O=C1CCCCC1 [cyclohexanone]
- vapor or sublimation pressure (428.01 K): 99 ± 3 kPa

SMILES: OC1CCCCC1 [cyclohexanol]
- vapor or sublimation pressure (433.38 K): 99 ± 3 kPa

From the NIST ThermoML archive (doi:10.1021/je501135p)
